Measurements reported in ChEMBL document CHEMBL1782019, “Pyridones as glucokinase activators: identification of a unique metabolic liability of the 4-sulfonyl-2-pyridone heterocycle” (Bioorg Med Chem Lett, 2009).

What was measured:
[1] = Half life in human liver microsome at 1 uM by LC/MS/MS analysis; assay type: ADME; conditions: liver microsomes
[2] = Hepatic clearance in rat liver microsome at 1 uM by LC/MS/MS analysis; assay type: ADME; conditions: liver microsomes
[3] = Half life in rat liver microsome at 1 uM by LC/MS/MS analysis; assay type: ADME; conditions: liver microsomes
[4] = Bioavailability in Sprague-Dawley rat at 0.5 mg/kg, iv and 5 mg/kg, po; assay type: ADME, organism-based; conditions: in vivo
[5] = Half life in Sprague-Dawley rat at 0.5 mg/kg, iv and 5 mg/kg, po; assay type: ADME, organism-based; conditions: in vivo
[6] = Clearance in Sprague-Dawley rat at 0.5 mg/kg, iv and 5 mg/kg, po; assay type: ADME, organism-based; conditions: in vivo
[7] = Fraction unbound in Sprague-Dawley rat at 0.5 mg/kg, iv and 5 mg/kg, po; assay type: ADME, organism-based; conditions: plasma
[8] = Hepatic clearance in human liver microsome at 1 uM by LC/MS/MS analysis; assay type: ADME; conditions: liver microsomes
Hexokinase-4 = biological target: T1, Hexokinase-4 (Homo sapiens, UniProt P35557)
T1 sequence (P35557 whole entry): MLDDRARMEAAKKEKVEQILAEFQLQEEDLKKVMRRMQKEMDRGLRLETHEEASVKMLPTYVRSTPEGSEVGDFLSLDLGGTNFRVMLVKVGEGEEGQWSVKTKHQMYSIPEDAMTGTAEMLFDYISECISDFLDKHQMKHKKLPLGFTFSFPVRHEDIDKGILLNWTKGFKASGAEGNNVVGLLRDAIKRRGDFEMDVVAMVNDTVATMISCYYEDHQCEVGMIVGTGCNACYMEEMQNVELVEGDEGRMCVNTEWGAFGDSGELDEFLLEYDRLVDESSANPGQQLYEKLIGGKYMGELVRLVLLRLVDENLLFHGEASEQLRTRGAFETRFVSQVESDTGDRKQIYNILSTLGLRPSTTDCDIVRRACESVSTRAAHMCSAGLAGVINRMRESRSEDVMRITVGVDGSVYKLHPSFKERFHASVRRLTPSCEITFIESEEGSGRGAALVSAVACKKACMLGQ
Description: Activation of human recombinant glucokinase using 6.5 mM glucose by spectrophotometry

EC50 (Hexokinase-4) [nM] | Structure (SMILES) | further results
3500 | Cc1cnc(NC(=O)[C@H](CC2CCCC2)n2ccc(S(C)(=O)=O)cc2=O)cn1 | half-life at 1 µM [1]: > 120 min; CLhep predicted at 1 µM [2]: 31 mL/min/kg; half-life at 1 µM [3]: 56 min; bioavailability [4]: 2%; half-life [5]: 12 min; clearance [6]: 337 mL/min/kg; fraction unbound [7]: 0.35; CLhep predicted at 1 µM [8]: < 5 mL/min/kg
510 | Cc1ccc(NC(=O)[C@H](CC(C)C)n2ccc(S(=O)(=O)C(C)C)cc2=O)nc1 | –
620 | Cc1csc(NC(=O)c2cc(Sc3nccn3C)c(F)cc2N)n1 | –
560 | Cc1ccc(NC(=O)[C@H](CC2CCCC2)n2ccc(S(C)(=O)=O)cc2=O)nc1 | half-life at 1 µM [1]: > 120 min; CLhep predicted at 1 µM [2]: 58 mL/min/kg; half-life at 1 µM [3]: 9 min; CLhep predicted at 1 µM [8]: 5 mL/min/kg
500 | CCS(=O)(=O)c1ccn([C@@H](CC2CCCC2)C(=O)Nc2ccc(C)cn2)c(=O)c1 | –
230 | Cc1ccc(NC(=O)[C@H](CC2CCCC2)n2ccc(S(=O)(=O)C(C)C)cc2=O)nc1 | –
110 | Cc1ccc(NC(=O)[C@H](CC2CCCC2)n2ccc(S(=O)(=O)C3CC3)cc2=O)nc1 | –
60 | Cc1ccc(NC(=O)[C@H](CC2CCCC2)n2ccc(S(=O)(=O)C3CCC3)cc2=O)nc1 | –
480 | Cc1ccc(NC(=O)[C@H](CC2CCCC2)n2cc(Cl)c(S(C)(=O)=O)cc2=O)nc1 | –
440 | Cc1ccc(NC(=O)[C@H](CC2CCCC2)n2cc(C)c(S(C)(=O)=O)cc2=O)nc1 | –
260 | Cc1ccc(NC(=O)[C@H](CC2CCCC2)n2cc(Cl)c(S(=O)(=O)C(C)C)cc2=O)nc1 | –
160 | Cc1ccc(NC(=O)[C@H](CC2CCCC2)n2cc(C)c(S(=O)(=O)C(C)C)cc2=O)nc1 | –
70 | Cc1ccc(NC(=O)[C@H](CC2CCCC2)n2ccc(S(=O)(=O)C(C)C)c(Cl)c2=O)nc1 | –
670 | Cc1ccc(NC(=O)[C@H](CC2CCC2)n2ccc(S(=O)(=O)C(C)C)cc2=O)nc1 | –
240 | Cc1ccc(NC(=O)[C@H](CC2CCCCC2)n2ccc(S(=O)(=O)C(C)C)cc2=O)nc1 | –
160 | Cc1ccc(NC(=O)[C@H](CC2CCC(F)(F)CC2)n2ccc(S(=O)(=O)C(C)C)cc2=O)nc1 | half-life at 1 µM [1]: 73 min; CLhep predicted at 1 µM [2]: 36 mL/min/kg; half-life at 1 µM [3]: 42 min; CLhep predicted at 1 µM [8]: 8 mL/min/kg
1500 | CCS(=O)(=O)c1ccn([C@@H](CC2CCOCC2)C(=O)Nc2ccc(C)cn2)c(=O)c1 | half-life at 1 µM [1]: > 120 min; CLhep predicted at 1 µM [2]: < 18 mL/min/kg; half-life at 1 µM [3]: > 120 min; CLhep predicted at 1 µM [8]: < 5 mL/min/kg
3300 | Cc1ccc(NC(=O)[C@H](Cc2ccccc2)n2ccc(S(=O)(=O)C(C)C)cc2=O)nc1 | –
600 | CC(C)S(=O)(=O)c1ccn([C@@H](CC2CCCC2)C(=O)Nc2ccccn2)c(=O)c1 | –
330 | CC(C)S(=O)(=O)c1ccn([C@@H](CC2CCCC2)C(=O)Nc2ccc(C(F)(F)F)cn2)c(=O)c1 | –
140 | CS(=O)(=O)c1cc(=O)n([C@@H](CC2CCCC2)C(=O)Nc2ccc(Cl)cn2)cc1Cl | –
1300 | O=C(Nc1cnccn1)[C@H](CC1CCCC1)n1ccc(S(=O)(=O)C2CC2)cc1=O | –
590 | O=C(Nc1cnccn1)[C@H](CC1CCCC1)n1ccc(S(=O)(=O)C2CCC2)cc1=O | –
700 | Cc1cnc(NC(=O)[C@H](CC2CCCC2)n2cc(Cl)c(S(=O)(=O)C(C)C)cc2=O)cn1 | –
720 | CC(C)S(=O)(=O)c1ccn([C@@H](CC2CCCC2)C(=O)Nc2cc[nH]n2)c(=O)c1 | –
910 | CC(C)S(=O)(=O)c1ccn([C@@H](CC2CCCC2)C(=O)Nc2ccn(C)n2)c(=O)c1 | half-life at 1 µM [1]: 93 min; CLhep predicted at 1 µM [2]: 58 mL/min/kg; half-life at 1 µM [3]: 8 min; bioavailability [4]: 8%; half-life [5]: 12 min; clearance [6]: 164 mL/min/kg; fraction unbound [7]: 0.59; CLhep predicted at 1 µM [8]: 10 mL/min/kg
1500 | Cn1ccc(NC(=O)[C@H](CC2CCCC2)n2ccc(S(=O)(=O)C3CC3)cc2=O)n1 | –
260 | Cn1ccc(NC(=O)[C@H](CC2CCCC2)n2ccc(S(=O)(=O)C3CCC3)cc2=O)n1 | –
1300 | CC(C)S(=O)(=O)c1ccn([C@@H](CC2CCCC2)C(=O)Nc2nccs2)c(=O)c1 | –
